Measurements from patent publication US7592357B2, “Compounds” (SmithKline Beecham Corporation, priority 2004, dated 2009).

Biological target: T1, human recombinant ROCK1 kinase domain (amino acid 2-543) (Homo sapiens, UniProt Q13464)
T1 construct: ROCK1 kinase domain (amino acid 2-543); His-tag; made in house; host or cells: Sf9 cells
Assay: ROCK Kinase Assay
Format: biochemical
Settings: 1 nM hROCK1, 1 uM ATP, SPA; results recorded as pIC50; range tested 50 uM to 0.8 nM or 10 uM to 0.8 nM
Protocol: ROCK inhibitor activity was determined using human recombinant ROCK1 kinase domain (amino acid 2-543) expressed in Sf9 cells (see WO9967283). The enzyme was purified using His-tag NTA column and Source15 HPLC chromatography. The assay of Rock-1 activity involved incubation with peptide substrate and ATP^33, the subsequent incorporation of P^33 into the peptide was quantified by Scintillation Proximity Assay (SPA—Amersham Pharmacia).
For IC50 determination, test compounds were typically dissolved at 10 mM in 100% DMSO, with subsequent serial dilution in 100% DMSO. Compounds were typically assayed over an eleven point dilution range with a concentration in the assay of 50 uM to 0.8 nM, in 3-fold dilutions. IC50) values were calculated by bespoke curve fitting software and then converted to pIC50. In some cases, compounds were assayed over an eleven point dilution range with a concentration in the assay of 10 uM to 0.8 nM, in 3-fold dilutions. […]
Assays were performed in opaque, white walled, 384 well plates, in a total assay volume of 20 ul. […] P^33 incorporation was quantified by scintillation counting in a Packard TopCount. When the reaction was terminated by addition of a 10 ul solution, P33 incorporation was quantified by luminescence detection using a PerkinElmer Viewlux ultraHTS microplate imager.

T1 sequence (Q13464 2-543): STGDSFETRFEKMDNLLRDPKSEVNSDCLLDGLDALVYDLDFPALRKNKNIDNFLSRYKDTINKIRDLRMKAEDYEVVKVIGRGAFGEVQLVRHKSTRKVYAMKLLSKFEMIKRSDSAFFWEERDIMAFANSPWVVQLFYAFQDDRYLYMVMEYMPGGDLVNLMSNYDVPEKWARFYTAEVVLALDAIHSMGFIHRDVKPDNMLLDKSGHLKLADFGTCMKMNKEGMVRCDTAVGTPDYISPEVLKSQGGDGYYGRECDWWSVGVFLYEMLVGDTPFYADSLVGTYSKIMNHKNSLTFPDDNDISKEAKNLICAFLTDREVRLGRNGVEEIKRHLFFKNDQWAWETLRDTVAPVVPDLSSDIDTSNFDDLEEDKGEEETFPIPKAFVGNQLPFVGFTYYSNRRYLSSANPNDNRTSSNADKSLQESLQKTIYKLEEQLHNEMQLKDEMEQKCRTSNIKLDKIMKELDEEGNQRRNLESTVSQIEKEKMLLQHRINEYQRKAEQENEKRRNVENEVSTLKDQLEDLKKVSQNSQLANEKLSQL

SMILES: COc1cccc(CN2C(=O)CC(c3ccc(C(F)(F)F)cc3)C(C(=O)Nc3cc4cn[nH]c4cc3F)=C2C)c1 (stereo not shown) [Example 104, N-(6-Fluoro-1H-indazol-5-yl)-2-methyl-1-{[3-(methyloxy)phenyl]methyl}-6-oxo-4-[4-(trifluoromethyl)phenyl]-1,4,5,6-tetrahydro-3-pyridinecarboxamide]
- activity in the ROCK kinase assay: not active
